Measured values as given in PubChem BioAssay (NCI).
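A five-concentration, 48-hour dose response in 96-well plates underlies each endpoint, interpolated linearly between surrounding concentrations. TGI marks complete inhibition of growth.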

Key:
Experiment in all cases: inhibition of tumour cell growth, NCI panel, 48 h
786-0 renal = tested on: 786-0 renal
HT29 colon = tested on: HT29 colon
HCT-116 colon = tested on: HCT-116 colon
TK-10 renal = tested on: TK-10 renal
SK-OV-3 ovarian = tested on: SK-OV-3 ovarian
SF-539 CNS = tested on: SF-539 CNS
SF-268 CNS = tested on: SF-268 CNS
MDA-MB-231 breast = tested on: MDA-MB-231 breast
HOP-92 NSCLC = tested on: HOP-92 NSCLC
OVCAR-4 ovarian = tested on: OVCAR-4 ovarian
HS 578T breast = tested on: HS 578T breast
MOLT-4 leukemia = tested on: MOLT-4 leukemia
A498 renal = tested on: A498 renal
PC-3 prostate = tested on: PC-3 prostate
SF-295 CNS = tested on: SF-295 CNS
MCF7 breast = tested on: MCF7 breast
A549 NSCLC = tested on: A549 NSCLC
ACHN renal = tested on: ACHN renal
HL-60(TB) leukemia = tested on: HL-60(TB) leukemia
SK-MEL-5 melanoma = tested on: SK-MEL-5 melanoma
UO-31 renal = tested on: UO-31 renal
SR leukemia = tested on: SR leukemia
OVCAR-8 ovarian = tested on: OVCAR-8 ovarian
DU-145 prostate = tested on: DU-145 prostate
M14 melanoma = tested on: M14 melanoma
NCI-H460 lung = tested on: NCI-H460 lung
SNB-75 CNS = tested on: SNB-75 CNS
SNB-19 CNS = tested on: SNB-19 CNS
HCC-2998 colon = tested on: HCC-2998 colon
BT-549 breast = tested on: BT-549 breast
CAKI-1 renal = tested on: CAKI-1 renal
KM12 colon = tested on: KM12 colon
OVCAR-5 ovarian = tested on: OVCAR-5 ovarian
HOP-62 NSCLC = tested on: HOP-62 NSCLC
MDA-MB-435 = tested on: MDA-MB-435
SN12C renal = tested on: SN12C renal
NCI-H226 lung = tested on: NCI-H226 lung
COLO 205 colon = tested on: COLO 205 colon
RXF 393 renal = tested on: RXF 393 renal
EKVX NSCLC = tested on: EKVX NSCLC
HCT-15 colon = tested on: HCT-15 colon
NCI-H522 lung = tested on: NCI-H522 lung
K-562 leukemia = tested on: K-562 leukemia
MDA-N = tested on: MDA-N
NCI/ADR-RES ovarian = tested on: NCI/ADR-RES ovarian
T-47D breast = tested on: T-47D breast
SW-620 colon = tested on: SW-620 colon
U251 CNS = tested on: U251 CNS
OVCAR-3 ovarian = tested on: OVCAR-3 ovarian
CCRF-CEM leukemia = tested on: CCRF-CEM leukemia
SK-MEL-28 melanoma = tested on: SK-MEL-28 melanoma
MALME-3M melanoma = tested on: MALME-3M melanoma
LOX IMVI melanoma = tested on: LOX IMVI melanoma
UACC-257 melanoma = tested on: UACC-257 melanoma
NCI-H23 lung = tested on: NCI-H23 lung
IGROV1 ovarian = tested on: IGROV1 ovarian
RPMI-8226 leukemia = tested on: RPMI-8226 leukemia
SK-MEL-2 melanoma = tested on: SK-MEL-2 melanoma
UACC-62 melanoma = tested on: UACC-62 melanoma

COc1cc([C@@H]2C3C(=O)c4ccccc4C3[C@@H](c3cc(OC)c(OC)c(OC)c3)C23Cc2ccccc2C3=O)cc(OC)c1OC (stereo not given in full)
TGI (786-0 renal): > 100 µM | TGI (HT29 colon): > 100 µM | TGI (HCT-116 colon): > 100 µM | TGI (TK-10 renal): > 100 µM | TGI (SK-OV-3 ovarian): > 100 µM | TGI (SF-539 CNS): > 100 µM | TGI (SF-268 CNS): > 100 µM | TGI (MDA-MB-231 breast): > 100 µM | TGI (HOP-92 NSCLC): > 100 µM | TGI (OVCAR-4 ovarian): > 100 µM | TGI (HS 578T breast): > 100 µM | TGI (MOLT-4 leukemia): > 100 µM | TGI (A498 renal): > 100 µM | TGI (PC-3 prostate): > 100 µM | TGI (SF-295 CNS): > 100 µM | TGI (MCF7 breast): > 100 µM | TGI (A549 NSCLC): > 100 µM | TGI (ACHN renal): > 100 µM | TGI (HL-60(TB) leukemia): > 100 µM | TGI (SK-MEL-5 melanoma): > 100 µM | TGI (UO-31 renal): > 100 µM | TGI (SR leukemia): > 100 µM | TGI (OVCAR-8 ovarian): > 100 µM | TGI (DU-145 prostate): > 100 µM | TGI (M14 melanoma): > 100 µM | TGI (NCI-H460 lung): > 100 µM | TGI (SNB-75 CNS): > 100 µM | TGI (SNB-19 CNS): > 100 µM | TGI (HCC-2998 colon): > 100 µM | TGI (BT-549 breast): > 100 µM | TGI (CAKI-1 renal): 7.85 µM | TGI (KM12 colon): > 100 µM | TGI (OVCAR-5 ovarian): > 100 µM | TGI (HOP-62 NSCLC): > 100 µM | TGI (MDA-MB-435): > 100 µM | TGI (SN12C renal): > 100 µM | TGI (NCI-H226 lung): > 100 µM | TGI (COLO 205 colon): > 100 µM | TGI (RXF 393 renal): > 100 µM | TGI (EKVX NSCLC): > 100 µM | TGI (HCT-15 colon): > 100 µM | TGI (NCI-H522 lung): > 100 µM | TGI (K-562 leukemia): > 100 µM | TGI (MDA-N): > 100 µM | TGI (NCI/ADR-RES ovarian): > 100 µM | TGI (T-47D breast): > 100 µM | TGI (SW-620 colon): > 100 µM | TGI (U251 CNS): > 100 µM | TGI (OVCAR-3 ovarian): > 100 µM | TGI (CCRF-CEM leukemia): > 100 µM | TGI (SK-MEL-28 melanoma): > 100 µM | TGI (MALME-3M melanoma): > 100 µM | TGI (LOX IMVI melanoma): > 100 µM | TGI (UACC-257 melanoma): > 100 µM | TGI (NCI-H23 lung): > 100 µM | TGI (IGROV1 ovarian): > 100 µM | TGI (RPMI-8226 leukemia): > 100 µM

CCOC(=O)c1cn2c(n1)sc1cc(C)c(C)cc12
TGI (786-0 renal): 34.9 µM | TGI (HT29 colon): 33.8 µM | TGI (HCT-116 colon): 33.7 µM | TGI (TK-10 renal): 57.1 µM | TGI (SK-OV-3 ovarian): 69.2 µM | TGI (SF-539 CNS): 29.6 µM | TGI (SF-268 CNS): 52.7 µM | TGI (MDA-MB-231 breast): 58.4 µM | TGI (HOP-92 NSCLC): 65.4 µM | TGI (OVCAR-4 ovarian): > 100 µM | TGI (HS 578T breast): 79.3 µM | TGI (MOLT-4 leukemia): 91.1 µM | TGI (A498 renal): 32.6 µM | TGI (PC-3 prostate): 45.7 µM | TGI (SF-295 CNS): > 100 µM | TGI (MCF7 breast): > 100 µM | TGI (A549 NSCLC): 38.2 µM | TGI (ACHN renal): 35.3 µM | TGI (SK-MEL-5 melanoma): 32.1 µM | TGI (UO-31 renal): 35.4 µM | TGI (SR leukemia): > 100 µM | TGI (OVCAR-8 ovarian): 52.3 µM | TGI (DU-145 prostate): 48.8 µM | TGI (M14 melanoma): 85.2 µM | TGI (NCI-H460 lung): > 100 µM | TGI (SNB-75 CNS): 44.8 µM | TGI (SNB-19 CNS): 42.9 µM | TGI (HCC-2998 colon): > 100 µM | TGI (BT-549 breast): 72.4 µM | TGI (CAKI-1 renal): 39.4 µM | TGI (SK-MEL-2 melanoma): > 100 µM | TGI (KM12 colon): > 100 µM | TGI (OVCAR-5 ovarian): 36.4 µM | TGI (HOP-62 NSCLC): 34.3 µM | TGI (MDA-MB-435): > 100 µM | TGI (UACC-62 melanoma): > 100 µM | TGI (SN12C renal): 36.8 µM | TGI (NCI-H226 lung): 44.9 µM | TGI (COLO 205 colon): 55 µM | TGI (RXF 393 renal): 51.2 µM | TGI (EKVX NSCLC): 61.7 µM | TGI (HCT-15 colon): > 100 µM | TGI (NCI-H522 lung): 94.4 µM | TGI (K-562 leukemia): > 100 µM | TGI (MDA-N): 22 µM | TGI (NCI/ADR-RES ovarian): 67.5 µM | TGI (T-47D breast): 62.1 µM | TGI (SW-620 colon): 65.1 µM | TGI (U251 CNS): 41.2 µM | TGI (OVCAR-3 ovarian): 32.5 µM | TGI (CCRF-CEM leukemia): > 100 µM | TGI (SK-MEL-28 melanoma): 48.4 µM | TGI (MALME-3M melanoma): 35.1 µM | TGI (LOX IMVI melanoma): > 100 µM | TGI (UACC-257 melanoma): > 100 µM | TGI (NCI-H23 lung): > 100 µM | TGI (IGROV1 ovarian): 56.5 µM | TGI (RPMI-8226 leukemia): 82.7 µM
